Laboratory results: patent EP1724268A1, “COMPOUND HAVING TGF-BETA INHIBITORY ACTIVITY AND PHARMACEUTICAL COMPOSITION CONTAINING SAME” (KIRIN BEER KABUSHIKI KAISHA, priority 2004, dated 2005)
Where two headings read alike, the source gives them in different places.

System: TGFβ signal
Test: TGFβ signal inhibitory activity, (SBE)4-Luc reporter in A549 cells (Test Examples 1A and 1B)
Type: cell-based, human
Conditions: Homo sapiens
How it was run: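 Compounds at 3 µM and 10 µM (some 1 µM) were added with 2 ng/ml TGFβ-1 to A549 cells stably expressing an SBE-driven luciferase, then cultured 4 hr. Chemiluminescent luciferase signal gave % inhibition versus TGFβ-alone and no-TGFβ controls.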

[1] = A549, 3 µM, compounds of Reference Examples (Test Example 1B), read-out: TGFβ inhibition rate, %
[2] = A549, 10 µM, compounds of Reference Examples (Test Example 1B), read-out: TGFβ inhibition rate, %
[3] = A549, test compound 3 µM, Reference Examples, Table 1B, read-out: TGFβ inhibition rate, %
[4] = A549, test compound 10 µM, Reference Examples, Table 1B, read-out: TGFβ inhibition rate, %
[5] = A549, test compound 3 µM, TGFβ-1 2 ng/ml, 4 hr, Table 1A, read-out: TGFβ inhibition rate, %
[6] = A549, test compound 10 µM, TGFβ-1 2 ng/ml, 4 hr, Table 1A, read-out: TGFβ inhibition rate, %
[7] = A549, test compound 1 µM, TGFβ-1 2 ng/ml, 4 hr, Table 1A, read-out: TGFβ inhibition rate, %

Row | Compound | inhibition at 3 µM [1] [%] | inhibition at 10 µM [2] [%] | inhibition at 3 µM [5] [%] | further results
1 | CCCOC(=O)c1cc2ccccc2cc1Oc1ccnc2cc(OCCCn3ccnc3)c(OC)cc12 [Compound r327] | 89 | 100 | – | –
2 | COc1cc2c(Oc3cc4ccccc4nc3C)ccnc2cc1O [Compound r352, 6-Methoxy-4-(2-methyl-quinolin-3-yloxy)-quinolin-7-ol] | 14 | 68 | – | –
3 | COc1cc2c(Oc3ccc(C)cc3C(=O)c3ccccc3)ccnc2cc1OCC(O)Cn1ccnc1 (stereo not shown) [r160] | – | – | – | inhibition at 3 µM [3]: 98%; inhibition at 10 µM [4]: 100%
4 | COc1cc2c(Oc3cc(C)c(C)nc3-c3ccc(C)cn3)ccnc2cc1OCc1ccccc1 [Compound r452] | 67 | 99 | – | –
5 | FC(F)(F)c1ccc2nccc(Oc3cc4cccnc4nc3-c3ccccc3)c2c1 [Compound 54, 2-Phenyl-3-(6-trifluoromethyl-quinolin-4-yloxy)-[1,8]naphthyridine] | – | – | 76 | inhibition at 10 µM [6]: 99%
6 | COc1cc2nccc(Oc3cc(C)c(C)nc3-c3ccccn3)c2cc1OC [Compound r269] | – | – | – | inhibition at 1 µM (A549, 1 µM, compounds of Reference Examples (Test Example 1B), read-out: TGFβ inhibition rate, %): 97%
7 | COc1cc2nccc(Oc3cc4cccnc4cc3-c3ccccc3)c2cc1OC [Compound r299, 6,7-Dimethoxy-4-(7-phenyl-quinolin-6-yloxy)-quinoline] | 99 | 100 | – | –
8 | COc1cc2nccc(Oc3ccc(C)nc3-c3ccncc3)c2cc1OC [Compound r263] | 82 | 99 | – | –
9 | COc1ccc2c(Oc3cc(C)c(C)nc3-c3ccccn3)ccnc2c1 [Compound 16, 3-(7-Methoxy-quinolin-4-yloxy)-5,6-dimethyl-[2,2']bipyridine] | – | – | 100 | inhibition at 1 µM [7]: 97%
10 | COc1cc2c(Oc3cc(C)c(C)nc3-c3ccc(C)cn3)ccnc2cc1OCCO [Compound r459] | 98 | – | – | –
11 | COc1cc2c(Oc3cc4ccccc4nc3C)ccnc2cc1OCCN1CCOCC1 [Compound r366] | – | – | – | inhibition at 10 µM (A549, read-out: TGFβ inhibition rate, %): 100%
12 | COc1cc2c(Oc3cc(C)c(C)cc3C(C)=O)ccnc2cc1O [Compound r314] | 50 | 89 | – | –
13 | COc1ccc(Oc2ccnc3cc(OC(=O)N4CCOCC4)c(OC)cc23)c(C(C)=O)c1 [Compound r118, 4-(2-Acetyl-4-methoxyphenoxy)-6-methoxy-7-quinolyl 4-morpholine carboxylate] | – | – | – | inhibition at 3 µM [3]: 97%; inhibition at 10 µM [4]: 100%
14 | COc1cc2nccc(Oc3cc4cccnc4nc3-c3ccccc3)c2cc1OCCO [Compound 125, 2-[7-Methoxy-4-(2-phenyl-[1,8]naphthyridin-3-yloxy)-quinolin-6-yloxy]-ethanol] | – | – | 99 | inhibition at 10 µM [6]: 100%
15 | COc1cc2nccc(Oc3cc4cnccc4nc3-c3cccnc3)c2cc1OC [Compound 95, 3-(6,7-Dimethoxy-quinolin-4-yloxy)-2-pyridin-3-yl-[1,6]naphthyridine] | – | – | 40 | inhibition at 10 µM [6]: 85%
16 | COc1cc2c(Oc3cc(C)c(C)nc3-c3ccccc3)ccnc2cc1OCc1ccccc1 [Compound r331] | 73 | 90 | – | –
17 | Cc1cc(Oc2ccnc3cc(-c4ccc(O)cc4)ccc23)c(-c2ccccn2)nc1C [Compound 107, 4-[4-(5,6-Dimethyl-[2,2']bipyridinyl-3-yloxy)-quinolin-7-yl]-phenol] | – | – | 100 | inhibition at 10 µM [6]: 100%
18 | COc1cc2c(Oc3cc(C)c(C)cc3C(C)=O)ccnc2cc1OCCn1ccnc1 [Compound r317] | 100 | 100 | – | –
19 | COc1cc2nccc(Oc3ccc(C)nc3Cc3ccccc3)c2cc1OC [r214] | 99 | 100 | – | –

Row | Compound | inhibition at 3 µM [1] [%] | inhibition at 10 µM [2] [%] | inhibition at 3 µM [5] [%] | further results
20 | Cc1cc(Oc2ncnc3sccc23)c(-c2ccccn2)nc1C [Compound 32, 5,6-Dimethyl-3-(thieno[2,3-d]pyrimidin-4-yloxy)-[2,2']bipyridine] | – | – | 64 | inhibition at 10 µM [6]: 94%
21 | COc1cc2nccc(Oc3ccc(C)c(C)c3)c2cc1OC [r15] | – | – | – | inhibition at 3 µM [3]: 41%; inhibition at 10 µM [4]: 84%
22 | COc1cc2nccc(Oc3ccc4ncsc4c3I)c2cc1OC [r294] | 53 | 77 | – | –
23 | Cc1cc(Oc2ccnc3cc(Cl)c(C(N)=O)cc23)c(-c2ccccn2)nc1C [Compound 146, 7-Chloro-4-(5,6-dimethyl-[2,2']bipyridinyl-3-yloxy)-quinoline-6-carboxylic acid amide] | – | – | 54 | inhibition at 10 µM [6]: 95%
24 | COc1cc2c(Oc3ccc(C)cc3C(=O)c3ccccc3)ccnc2cc1OCC1CO1 (stereo not shown) [Compound r151] | – | – | – | inhibition at 3 µM [3]: 95%; inhibition at 10 µM [4]: 100%
25 | COc1cc2nccc(Oc3cc(C)c(C)nc3-c3ccccn3)c2cc1C(N)=O [Compound 22, 4-(5,6-Dimethyl-[2,2']bipyridin-3-yloxy)-7-methoxy-quinoline-6-carboxylic acid amide] | – | – | 99 | inhibition at 1 µM [7]: 81%
26 | Clc1ccc2ncnc(Oc3cc4cccnc4nc3-c3ccccc3)c2c1 [Compound 68, 6-Chloro-4-(2-phenyl-[1,8]naphthyridin-3-yloxy)-quinazoline] | – | – | 43 | inhibition at 10 µM [6]: 91%
27 | Cc1cc(Oc2ccnc3ccc(-c4cccc(O)c4)cc23)c(-c2ccccn2)nc1C [Compound 11, 3-[4-(5,6-Dimethyl-[2,2']bipyridin-3-yloxy)-quinolin-6-yl]-phenol] | – | – | 100 | inhibition at 10 µM [6]: 100%
28 | COc1cc2c(Oc3ccc(C)nc3-c3nccs3)ccnc2cc1O [Compound r329] | 100 | 100 | – | –
29 | CCCCC(CC)COC(=O)c1ccccc1Oc1ccnc2cc(OC)c(OC)cc12 (stereo not shown) [Compound r101] | – | – | – | inhibition at 3 µM [3]: 0%; inhibition at 10 µM [4]: 64%
30 | COc1cc2nccc(Oc3cc4cccnc4nc3-c3ccc(F)cc3)c2cc1OC [Compound 83, 3-(6,7-Dimethoxy-quinolin-4-yloxy)-2-(4-fluoro-phenyl)-[1,8]naphthyridine] | – | – | 92 | inhibition at 10 µM [6]: 99%
31 | CCC(=O)c1cc(I)ccc1Oc1ccnc2cc(OC)c(OC)cc12 [Compound r47] | – | – | – | inhibition at 3 µM [3]: 45%; inhibition at 10 µM [4]: 98%
32 | COc1cc2nccc(Oc3ccc(C)cc3C(=O)c3ccc(OCCCl)cc3)c2cc1OC [Compound r189] | 86 | 100 | – | –
33 | COc1cc2nccc(Oc3ccc(C)nc3C(O)c3ccccc3)c2cc1OC (stereo not shown) [r217] | 91 | 100 | – | –
34 | COc1cc2c(Oc3cc4ccccc4nc3C)ccnc2cc1NCCN1CCOCC1 [Compound r410, [6-Methoxy-4-(2-methyl-quinolin-3-yloxy)-quinolin-7-yl]-(2-morpholin-4-yl-ethyl)-amine] | 91 | 100 | – | –
35 | COc1cc2c(Oc3cc(C)c(C)nc3-c3ccccc3)ccnc2cc1O [Compound r332] | 97 | 100 | – | –
36 | c1ccc(-c2nc3ncccc3cc2Oc2ccnc3ccsc23)cc1 [Compound 71, 2-Phenyl-3-(thieno[3,2-b]pyridin-7-yloxy)-[1,8]naphthyridine] | – | – | 93 | inhibition at 10 µM [6]: 100%
37 | COc1ccc(Oc2ccnc3cc(OC)c(OC)cc23)c(C(O)Cc2ccccn2)c1 (stereo not shown) [r166] | 24 | 67 | – | –
38 | COc1cc2nccc(Oc3cc4cccnc4cc3C)c2cc1OC [r296] | 86 | 100 | – | –
